In BindingDB's records for doi:10.1016/S0960-894X(00)80170-5 (1992) one finds Kd data, which are given here for three compounds.

SMILES strings stand for the structures. pKd: −log10 of the molar value.

The target of assay [1] is T1, 5-hydroxytryptamine receptor 3A/3B (Mus musculus, UniProt P23979+Q9JHJ5).
T1 sequence (P23979 whole entry): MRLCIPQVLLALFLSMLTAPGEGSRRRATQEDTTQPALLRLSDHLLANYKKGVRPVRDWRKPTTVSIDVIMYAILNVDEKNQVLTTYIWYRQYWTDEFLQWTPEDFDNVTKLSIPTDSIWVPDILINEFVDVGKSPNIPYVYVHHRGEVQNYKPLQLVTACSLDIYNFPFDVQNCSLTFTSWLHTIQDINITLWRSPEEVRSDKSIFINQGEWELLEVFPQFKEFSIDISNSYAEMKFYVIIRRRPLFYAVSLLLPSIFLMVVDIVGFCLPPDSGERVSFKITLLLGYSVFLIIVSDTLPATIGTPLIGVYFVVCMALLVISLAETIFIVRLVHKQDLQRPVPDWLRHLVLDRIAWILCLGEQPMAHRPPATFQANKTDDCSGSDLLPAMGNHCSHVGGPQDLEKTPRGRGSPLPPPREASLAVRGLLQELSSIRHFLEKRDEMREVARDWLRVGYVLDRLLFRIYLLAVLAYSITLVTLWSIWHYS
T1 sequence (Q9JHJ5 whole entry): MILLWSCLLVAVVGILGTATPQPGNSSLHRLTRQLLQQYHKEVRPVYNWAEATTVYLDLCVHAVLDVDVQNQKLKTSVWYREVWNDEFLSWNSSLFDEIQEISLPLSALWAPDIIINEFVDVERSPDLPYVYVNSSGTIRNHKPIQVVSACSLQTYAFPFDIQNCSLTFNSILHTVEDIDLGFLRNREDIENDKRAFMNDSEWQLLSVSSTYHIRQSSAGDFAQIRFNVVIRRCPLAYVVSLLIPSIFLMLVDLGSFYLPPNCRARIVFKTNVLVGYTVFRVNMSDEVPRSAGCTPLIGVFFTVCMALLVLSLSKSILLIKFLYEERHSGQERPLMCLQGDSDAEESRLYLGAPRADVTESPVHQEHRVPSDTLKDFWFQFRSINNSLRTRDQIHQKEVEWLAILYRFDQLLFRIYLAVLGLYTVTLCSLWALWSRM
In words: Compound was evaluated for binding to Serotonin 5-hydroxytryptamine 3 receptor in N1E cells using [3H]- -Tropisetron as radioligand.

The target of assay [2] is T1, 5-hydroxytryptamine receptor 3A/3B. In words: Compound was evaluated for binding to 5-hydroxytryptamine 3 receptor in N1E cells using [3H]- -Tropisetron as radioligand.

In the case of `CN1C2CC(OC(=O)c3c[nH]c4ccccc34)CC1C1OC12` (stereo not drawn), the pKd (as a rule, the negative decadic logarithm of the Kd, by convention in mol/L) in assay [1] was 9.20.
Same read-out and setting: under `CN1[C@@H]2CC[C@H]1C[C@@H](OC(=O)c1c[nH]c3ccccc13)C2` [(3-ENDO)-8-METHYL-8-AZABICYCLO[3.2.1]OCT-3-YL 1H-INDOLE-3-CARBOXYLATE] stands 9.10.
On to `Cc1nccn1CC1CCc2c(c3ccccc3n2C)C1=O` (stereo not drawn) [NSC_68647], for which the pKd in assay [2] is 7.70.
